Patent publication US6737383B1, “Herbicidal oxadiazolidines” (priority 1999, dated 2004)

Legend:
[1] = system: bedstraw; assay: Test B pre/postemergence bedstraw; format: in vivo, Galium aparine
Summary of the method: (§1)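 Test chemicals in a non-phytotoxic solvent mixture with surfactant were sprayed preemergence onto planted seeds and postemergence onto plants 2 to 18 cm tall (1- to 4-leaf stage). After twelve to sixteen days in a greenhouse, injury was visually rated against untreated controls from 0 (no effect) to 10 (complete control).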

[2] = system: blackgrass; assay: Test B pre/postemergence blackgrass; format: in vivo, Alopecurus myosuroides
Summary of the method: as §1

[3] = system: surinam grass; assay: Test B pre/postemergence surinam grass; format: in vivo, Brachiaria decumbens
Summary of the method: as §1

[4] = system: cocklebur; assay: Test B pre/postemergence cocklebur; format: in vivo, Xanthium strumarium
Summary of the method: as §1

[5] = system: corn; assay: Test B pre/postemergence corn; format: in vivo, Zea mays
Summary of the method: as §1

[6] = system: morningglory; assay: Test B pre/postemergence morningglory; format: in vivo, Ipomoea hederacea
Summary of the method: as §1

[7] = system: pigweed; assay: Test B pre/postemergence pigweed; format: in vivo, Amaranthus retroflexus
Summary of the method: as §1

[8] = system: rape; assay: Test B pre/postemergence rape; format: in vivo, Brassica napus
Summary of the method: as §1

[9] = system: soybean; assay: Test B pre/postemergence soybean; format: in vivo, Glycine max
Summary of the method: as §1

[10] = system: sugar beet; assay: Test B pre/postemergence sugar beet; format: in vivo, Beta vulgaris
Summary of the method: as §1

[11] = system: velvetleaf; assay: Test B pre/postemergence velvetleaf; format: in vivo, Abutilon theophrasti
Summary of the method: as §1

[12] = system: wild oat; assay: Test B pre/postemergence wild oat; format: in vivo, Avena fatua
Summary of the method: as §1

[13] = system: purple nutsedge; assay: Test B pre/postemergence purple nutsedge; format: in vivo, Cyperus rotundus
Summary of the method: as §1

[14] = system: rice; assay: Test B flood test rice; format: in vivo, Oryza sativa
Summary of the method: (§2)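 Each value is a visual injury score relative to controls, with 10 meaning complete control and 0 no effect. Evaluation took place twelve to sixteen days after the 2-leaf-stage plants were treated and kept in the greenhouse.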

[15] = system: smallflower flatsedge; assay: Test B flood test smallflower flatsedge; format: in vivo, Cyperus difformis
Summary of the method: as §2

[16] = system: bamyardgrass; assay: Test B flood test barnyardgrass; format: in vivo, Echinochloa crus-galli
Summary of the method: as §2

[17] = Preemergence, Rate 62 g/ha, scale of 0 to 10 where 0 is no effect and 10 is complete control
[18] = Preemergence, Rate 125 g/ha, 0 is no effect, 10 is complete control
[19] = Preemergence, Rate 250 g/ha, scale 0 to 10, 0 is no effect, 10 is complete control
[20] = Preemergence, Rate 500 g/ha, scale of 0 to 10 where 0 is no effect and 10 is complete control
[21] = Rate 62 g/ha, Postemergence, scale of 0 to 10 where 0 is no effect and 10 is complete control
[22] = Rate 125 g/ha, Postemergence, scale 0 to 10
[23] = Rate 500 g/ha, Postemergence, scale 0 to 10
[24] = Rate 62 g/ha, headed Pre-emergence (flood test species), scale 0 to 10 (0 no effect, 10 complete control)
[25] = Rate 125 g/ha, Pre-emergence, flood test species, scale 0 to 10 where 0 is no effect and 10 is complete control
[26] = Rate 250 g/ha, Pre-emergence, flood-test species, scale 0 to 10, 0 is no effect, 10 is complete control
[27] = Rate 500 g/ha, headed Pre-emergence (flood test species), scale 0 to 10 (0 no effect, 10 complete control)

Cc1ccccc1-n1c(=O)on(C(=O)N(c2ccc(S(C)(=O)=O)cc2)C(C)C)c1=O [Compound 203]
0: Bedstraw plant response rating [1, 17] | Bedstraw plant response rating (0 to 10 scale) [1, 18] | Bedstraw plant response rating [1, 19] | Plant response rating, Bedstraw [1, 20] | Bedstraw plant response rating [1, 21] | Bedstraw plant response rating [1, 22] | Plant response rating (0 to 10; 0 is no effect, 10 is complete control), Bedstraw ([1]; Rate 250 g/ha, Postemergence) | Bedstraw plant response rating [1, 23] | Blackgrass plant response rating [2, 17] | Blackgrass plant response rating (0 to 10 scale) [2, 18] | Blackgrass plant response rating [2, 19] | Plant response rating, Blackgrass [2, 20] | Blackgrass plant response rating [2, 21] | Blackgrass plant response rating [2, 22] | Plant response rating (0 to 10; 0 is no effect, 10 is complete control), Blackgrass ([2]; Rate 250 g/ha, Postemergence) | Blackgrass plant response rating [2, 23] | B. signalgrass plant response rating [3, 17] | B. signalgrass plant response rating (0 to 10 scale) [3, 18] | B. signalgrass plant response rating [3, 19] | Plant response rating, B. signalgrass [3, 20] | B. signalgrass plant response rating [3, 21] | B. signalgrass plant response rating ([3]; Rate 125 g/ha, Postemergence, scale 0 (no effect) to 10 (complete control)) | Plant response rating, B. signalgrass ([3]; Rate 250 g/ha, Postemergence, scale 0 to 10, 0 is no effect, 10 is complete control) | B. signalgrass plant response rating ([3]; Rate 500 g/ha, Postemergence, scale 0 to 10, 0 no effect, 10 complete control) | Cocklebur plant response rating [4, 17] | Cocklebur plant response rating (0 to 10 scale) [4, 18] | Cocklebur plant response rating [4, 19] | Plant response rating, Cocklebur [4, 20] | Cocklebur plant response rating [4, 21] | Cocklebur plant response rating [4, 22] | Plant response rating (0 to 10; 0 is no effect, 10 is complete control), Cocklebur ([4]; Rate 250 g/ha, Postemergence) | Cocklebur plant response rating [4, 23] | Corn plant response rating [5, 17] | Corn plant response rating (0 to 10 scale) [5, 18] | Corn plant response rating [5, 19] | Plant response rating, Corn [5, 20] | Corn plant response rating [5, 21] | Corn plant response rating [5, 22] | Plant response rating (0 to 10; 0 is no effect, 10 is complete control), Corn ([5]; Rate 250 g/ha, Postemergence) | Corn plant response rating [5, 23] | Morningglory plant response rating [6, 17] | Morningglory plant response rating (0 to 10 scale) [6, 18] | Morningglory plant response rating [6, 19] | Plant response rating, Morningglory [6, 20] | Morningglory plant response rating [6, 21] | Morningglory plant response rating [6, 22] | Plant response rating (0 to 10; 0 is no effect, 10 is complete control), Morningglory ([6]; Rate 250 g/ha, Postemergence) | Morningglory plant response rating [6, 23] | Redroot pigweed plant response rating [7, 17] | Redroot pigweed plant response rating (0 to 10 scale) [7, 18] | Redroot pigweed plant response rating [7, 19] | Plant response rating, Redroot pigweed [7, 20] | Redroot pigweed plant response rating [7, 21] | Redroot pigweed plant response rating [7, 22] | Plant response rating (0 to 10; 0 is no effect, 10 is complete control), Redroot pigweed ([7]; Rate 250 g/ha, Postemergence) | Redroot pigweed plant response rating [7, 23] | Rape plant response rating [8, 17] | Rape plant response rating (0 to 10 scale) [8, 18] | Rape plant response rating [8, 19] | Plant response rating, Rape [8, 20] | Rape plant response rating [8, 21] | Rape plant response rating [8, 22] | Plant response rating (0 to 10; 0 is no effect, 10 is complete control), Rape ([8]; Rate 250 g/ha, Postemergence) | Rape plant response rating [8, 23] | Soybean plant response rating [9, 17] | Soybean plant response rating (0 to 10 scale) [9, 18] | Soybean plant response rating [9, 19] | Plant response rating, Soybean [9, 20] | Soybean plant response rating [9, 21] | Soybean plant response rating [9, 22] | Plant response rating (0 to 10; 0 is no effect, 10 is complete control), Soybean ([9]; Rate 250 g/ha, Postemergence) | Soybean plant response rating [9, 23] | Sugarbeets plant response rating [10, 17] | Sugarbeets plant response rating (0 to 10 scale) [10, 18] | Sugarbeets plant response rating [10, 19] | Plant response rating, Sugarbeets [10, 20] | Sugarbeets plant response rating [10, 21] | Sugarbeets plant response rating [10, 22] | Plant response rating (0 to 10; 0 is no effect, 10 is complete control), Sugarbeets ([10]; Rate 250 g/ha, Postemergence) | Sugarbeets plant response rating [10, 23] | Velvetleaf plant response rating [11, 17] | Velvetleaf plant response rating [11, 19] | Plant response rating, Velvetleaf [11, 20] | Velvetleaf plant response rating [11, 21] | Velvetleaf plant response rating [11, 22] | Plant response rating (0 to 10; 0 is no effect, 10 is complete control), Velvetleaf ([11]; Rate 250 g/ha, Postemergence) | Wild oats plant response rating [12, 17] | Wild oats plant response rating [12, 19] | Plant response rating, Wild oats [12, 20] | Wild oats plant response rating [12, 21] | Wild oats plant response rating [12, 22] | Plant response rating (0 to 10; 0 is no effect, 10 is complete control), Wild oats ([12]; Rate 250 g/ha, Postemergence) | Nutsedge plant response rating [13, 17] | Nutsedge plant response rating (0 to 10 scale) [13, 18] | Nutsedge plant response rating [13, 19] | Plant response rating, Nutsedge [13, 20] | Nutsedge plant response rating [13, 21] | Nutsedge plant response rating [13, 22] | Plant response rating (0 to 10; 0 is no effect, 10 is complete control), Nutsedge ([13]; Rate 250 g/ha, Postemergence) | Nutsedge plant response rating [13, 23] | Rice plant response rating [14, 24] | Rice plant response rating [14, 25] | Rice plant response rating [14, 26] | Plant response rating, Rice [14, 27] | S. Flatsedge plant response rating [15, 24] | S. Flatsedge plant response rating [15, 25] | S. Flatsedge plant response rating [15, 26] | S. Flatsedge plant response rating ([15]; Rate 500 g/ha, Pre-emergence, flood test species, scale 0 to 10 (0 no effect, 10 complete control)) | Barnyardgrass plant response rating [16, 24] | Barnyardgrass plant response rating [16, 25] | Barnyardgrass plant response rating [16, 26] | Plant response rating, Barnyardgrass [16, 27]
